Assays:
[1] = as described in WO96/40634; cited from earlier work
[2] = Dry grinding test (planet ball mill, evaluated by powder X-ray spectrum); assay type: physicochemical; settings: 1 g, 2480 rpm for 5 hours
Method: Type-I crystal (1 g) and type-II crystal (1 g) were respectively charged in a planet ball mill (manufactured by Fritsch Japan) and then grinded at 2480 rpm for 5 hours. The grinded crystals were evaluated by a powder X-ray spectrum.

Row | Compound | urinary bladder capacity increasing activity [1] | crystal transition after dry grinding [2]
1 | Cc1c(-c2ccccc2F)[nH]c(N)c1C#N [the pyrrole compound, 2-amino-3-cyano-4-methyl-5-(2-fluorophenyl)pyrrole] | excellent urinary bladder capacity increasing activity | 
2 | Cc1c(-c2ccccc2F)[nH]c(N)c1C#N [type-I crystal, 2-amino-3-cyano-4-methyl-5-(2-fluorophenyl)pyrrole] |  | No crystal transition was recognized
3 | Cc1c(-c2ccccc2F)[nH]c(N)c1C#N [type-II crystal, 2-amino-3-cyano-4-methyl-5-(2-fluorophenyl)pyrrole, reference compound] |  | transition of crystals into type-I crystal was recognized

Source: patent US7211678B2, “Stable crystals of pyrrole compound” (Nippon Shinyaku Co., Ltd., priority 2001, dated 2007)
